Like-named read-outs stand apart in the source and are kept apart here.
Tested on: alkaline protease API-26 produced by Bacillus sp. SD 114 (FERM BP-5736)
Type: biochemical
Description: Add 50 μl of the enzyme solution diluted appropriately to 500 μl of 50 mM Atkins-Pantin borate buffer, pH10, and pre-incubate at 30° C. for 3 to 5 minutes. To this solution, add 500 μl of 2% Hammarsten*s casein solution, pH 10, and after 10 minutes, stop the reaction by adding 2 ml of trichloroacetic acid (TCA) solution (0.032 M TCA solution adjusted to pH 4 with acetate buffer). Leave at 30° C. for more than 10 minutes, and filter with paper filter No.2 (Toyo Roshi). To 1 ml of filtrate add 5 ml of 0.4 M sodium carbonate and 1 ml of phenol reagent diluted 6-fold with water. Leave at 30° C. for 20 minutes for coloring, and then determine the absorbance at 660 nm. The unit of the protease activity is described by the katal. One katal is defined as the activity that the protease reacting with casein as a substrate at pH 10 and at 30° C. produces a degradation product with the absorbance at 660 nm equivalent to one mole of tyrosine.
Effects of various inhibitors against this enzyme were investigated according to the following conditions and procedure:
A solution containing this enzyme at about 20 nkatal/ml in 50 mM borate buffer, pH 10 was prepared. To this solution, EDTA, p-mercuribenzoic acid (PCMV) or phenylmethanesulfonyl fluoride (PMSF) was added at a concentration shown in Table 4. After incubating at 30° C. for 30 minutes, the enzyme activity was determined.

**Q.** For `O=C(O)c1cc[c]([Hg][OH])cc1` [PCMV, p-mercuribenzoic acid], which “Activity (relative activity, enzyme with no inhibitor = 100%)” value (PCMV 1 mM, 50 mM borate buffer pH 10, incubated at 30° C. for 30 minutes, enzyme about 20 nkatal/ml) is on record?
**A.** The value was 100%.

**Q.** `O=C(O)CN(CCN(CC(=O)O)CC(=O)O)CC(=O)O` [EDTA, ethylenediaminetetraacetic acid] was tested. Which “Activity (relative activity, enzyme with no inhibitor = 100%)” value (pH 10) did it give?
**A.** The value was 99.
